Columns and labels:
[1] = test system: primary human pan T cells; test: Human T-Cell IL2 Induction Assay; assay type: cell-based; conditions: anti-CD3/anti-CD28 stimulation
Method: Assay Principle: Anti-CD3 and anti-CD28 activates TCR signaling in primary human pan T cells leading to IL-2 promoter induction. Secreted IL-2 in cell culture supernatant is detected by electrochemiluminescence using a capture antibody against IL-2 and an anti-IL-2 antibody labeled with SULFO-tag. Also see www.mesoscale.com for additional electrochemiluminescence technology information.
Assay Procedure: Incubate primary human pan T cells with varying concentrations of test compounds for 30 minutes in a humidified incubator at 37° C. and 5% CO2. Transfer cells to a plate pre-coated with a fixed concentration of anti-human CD3 (determined separately for each donor lot) and add soluble anti-human CD28 (final concentration=1 μg/ml). Stimulate cells in a humidified incubator at 37° C. and 5% CO2 for 4 hours. Transfer 25 μl of supernatant to a MSD single spot plate pre-coated with an anti-human IL-2 antibody. Incubate MSD plate overnight at 4° C. with gentle shaking. Wash MSD plate 4× with wash buffer. Add SULFO-tagged detection antibody at a 1:50 dilution and incubate at room temperature shaking for 2 hours. Wash MSD plate 4× with wash buffer and add 150 μl 2×MSD read buffer. Read on an MSD instrument. Normalize data to stimulated/untreated controls to calculate % activity at each concentration of compound.
• Frozen Primary Human Pan-T Cells (StemCell Technologies #70024) • anti-human CD3 (OKT3 clone) (eBioscience #16-0037-81) • anti-human CD28 (CD28.2 clone) (BD #555725) • 96-well Human IL-2 tissue culture kit (MSD #K151AHB-4) Instrumentation: • Biomek FX for liquid handling (Beckman Coulter) • MSD SECTOR S 600 (Meso Scale Discovery)
Exemplary compounds of Formula (I) were tested in the human T-cell IL-2 induction assays. The % increase measured for IL-2 in cells treated by the test compounds relative to untreated cells are provided in Table B2 for certain compounds.

[2] = molecular target: HPK1 (Homo sapiens (Human), UniProt Q92918, S171E/T165E); test: HPK1-FL HTRF Enzymatic Assay ("HTRF"); assay type: biochemical; conditions: HPK full length, ATP 1 mM
Sequence of HPK1 (Q92918 whole entry T165E/S171E): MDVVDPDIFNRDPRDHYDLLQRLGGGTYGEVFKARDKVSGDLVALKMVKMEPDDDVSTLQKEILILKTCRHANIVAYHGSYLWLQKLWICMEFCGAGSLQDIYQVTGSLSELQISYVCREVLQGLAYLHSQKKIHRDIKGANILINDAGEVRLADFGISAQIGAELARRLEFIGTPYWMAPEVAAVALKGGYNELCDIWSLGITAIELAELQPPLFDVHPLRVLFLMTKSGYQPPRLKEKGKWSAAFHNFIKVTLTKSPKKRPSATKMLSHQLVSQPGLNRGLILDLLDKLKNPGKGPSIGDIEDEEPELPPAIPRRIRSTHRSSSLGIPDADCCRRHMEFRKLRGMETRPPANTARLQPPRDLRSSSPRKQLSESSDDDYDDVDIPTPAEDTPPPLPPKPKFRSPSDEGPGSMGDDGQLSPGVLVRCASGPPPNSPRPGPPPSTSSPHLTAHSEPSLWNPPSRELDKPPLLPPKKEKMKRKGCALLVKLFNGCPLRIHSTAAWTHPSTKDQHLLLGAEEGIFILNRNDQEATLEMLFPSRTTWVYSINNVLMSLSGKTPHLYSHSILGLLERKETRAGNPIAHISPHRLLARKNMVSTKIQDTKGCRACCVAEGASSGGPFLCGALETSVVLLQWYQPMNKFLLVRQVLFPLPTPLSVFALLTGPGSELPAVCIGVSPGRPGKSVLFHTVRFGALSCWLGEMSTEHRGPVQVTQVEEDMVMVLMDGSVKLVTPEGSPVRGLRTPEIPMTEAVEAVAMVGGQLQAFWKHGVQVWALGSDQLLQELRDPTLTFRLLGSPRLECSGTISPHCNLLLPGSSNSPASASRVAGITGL
Method: HPK1-FL HTRF Enzymatic Assay (“HTRF”)
HPK-FL enzyme phosphorylates Biotin-SLP-76 substrate in the presence of ATP at 1 mM and varying concentrations of test compound. Product is detected by FRET using Eu-anti-pSLP76 Ab and SA-XL665. Also see www.cisbio.com/HTRF for additional HTRF technology information.
Instrumentation: Echo555 compound dispenser; Agilent Bravo; Perkin Elmer Envision.
To a 384 well Proxiplate with 80 nL compound or DMSO spotted on was added 4 μl/well kinase mix. The mixture was preincubated for 30 minutes and then 4 μl/well substrate mix was added. The solution was incubated for 60 min and then 4 μl/well detection mix was added. The solution was incubated for another 60 min. The plates were then loaded onto a
Perkin Elmer Envision and the TR-FRET signal was measured at […] and 665 nm. A ratio of 665/620 was used to calculate the % activity at each concentration of compound.

| Ki [2] | Compound | % IL-2 increase relative to untreated cells ([1]; assayed concentration 0.926 μM) | % IL-2 increase relative to untreated cells ([1]; assayed concentration 2.778 μM) |
| --- | --- | --- | --- |
| 0.06 nM | CC[C@@H]1[C@H](C(=O)Nc2cc3cc(-c4cnc5c(c4C)NCCO5)c(F)cc3cn2)[C@H]1c1cnn(C)c1 (single isomer, unassigned) [Compound 301c] | 232% | – |
| – | Cc1c(-c2cc3cc(NC(=O)N[C@H](C)c4cnn(C)c4)ncc3cc2F)cnc2c1NCCO2 [Compound 201a, (R)-1-(7-Fluoro-6-(8-methyl-2,3-dihydro-1H-pyrido[2,3-b][1,4]oxazin-7-yl)isoquinolin-3-yl)-3-(1-(1-methyl-1H-pyrazol-4-yl)ethyl)urea] | – | 145% |
| 0.27 nM | Cc1c(-c2cc3cc(NC(=O)OC4CC5(CCNCC5)C4)ncc3cc2F)cnc2c1NCCO2 [Compound 113, 7-Azaspiro[3.5]nonan-2-yl (7-fluoro-6-(8-methyl-2,3-dihydro-1H-pyrido[2,3-b][1,4]oxazin-7-yl)isoquinolin-3-yl)carbamate] | – | 702% |
| 24 nM | Cc1c(-c2cc3cc(NC(=O)OCC45CC4CCN5)ncc3cc2F)cnc2c1NCCO2 (racemic) [Compound 122, (2-Azabicyclo[3.1.0]hexan-1-yl)methyl (7-fluoro-6-(8-methyl-2,3-dihydro-1H-pyrido[2,3-b][1,4]oxazin-7-yl)isoquinolin-3-yl)carbamate] | – | – |
| 4 nM | Cc1c(-c2cc3cc(NC(=O)NC(C)CC#N)ncc3cc2F)cnc2c1NCCO2 (single isomer, unassigned) [Compound 203a] | – | – |
| 2.5 nM | Cc1c(-c2cc3cc(NC(=O)O[C@@H]4CCC[C@H]4C#N)ncc3cc2F)cnc2c1NCCO2 (single isomer, unassigned) [Compound 128a] | – | – |
| 0.805 nM | Cc1c(-c2cc3cc(NC(=O)O[C@@H]4CCC[C@H]4C#N)ncc3c(Cl)c2F)cnc2c1NCCO2 (single isomer, unassigned) [Compound 127a] | – | – |
| 6.2 nM | Cc1c(-c2cc3cc(NC(=O)OCCS(C)(=O)=O)ncc3cc2F)cnc2c1NCCO2 [Compound 117, 2-(Methylsulfonyl)ethyl (7-fluoro-6-(8-methyl-2,3-dihydro-1H-pyrido[2,3-b][1,4]oxazin-7-yl)isoquinolin-3-yl)carbamate] | – | – |
| 1.1 nM | Cc1c(-c2cc3cc(NC(=O)NC(C)CC#N)ncc3cc2F)cnc2c1NCCO2 (single isomer, unassigned) [Compound 203b] | – | – |
| 1.15 nM | Cc1c(-c2cc3cc(NC(=O)OC4CC5(C4)CN(C)C5)ncc3cc2F)cnc2c1NCCC2 [Compound 132, 2-Methyl-2-azaspiro[3.3]heptan-6-yl (7-fluoro-6-(4-methyl-5,6,7,8-tetrahydro-1,5-naphthyridin-3-yl)isoquinolin-3-yl)carbamate] | – | – |
| 492 nM | Cc1c(-c2cc3cc(NC(=O)O[C@H]4CCCC[C@@H]4C#N)ncc3c(Cl)c2F)cnc2c1NCCO2 (single isomer, unassigned) [Compound 126a] | – | – |
| 29 nM | Cc1c(-c2cc3cc(NC(=O)OCC(C)N)ncc3cc2F)cnc2c1NCCO2 (racemic) [Compound 110, 2-Aminopropyl (7-fluoro-6-(8-methyl-2,3-dihydro-1H-pyrido[2,3-b][1,4]oxazin-7-yl)isoquinolin-3-yl)carbamate] | – | – |
| 0.47 nM | Cc1c(-c2cc3cc(NC(=O)OC4CC5(CCNC5)C4)ncc3cc2F)cnc2c1NCCO2 (centres unmarked) [Compound 134, 6-Azaspiro[3.4]octan-2-yl (7-fluoro-6-(8-methyl-2,3-dihydro-1H-pyrido[2,3-b][1,4]oxazin-7-yl)isoquinolin-3-yl)carbamate] | – | – |
| 0.44 nM | Cc1c(-c2cc3cc(NC(=O)OCCC4C5CNCC45)ncc3cc2F)cnc2c1NCCO2 (centres unmarked) [Compound 124, 2-(3-Azabicyclo[3.1.0]hexan-6-yl)ethyl (7-fluoro-6-(8-methyl-2,3-dihydro-1H-pyrido[2,3-b][1,4]oxazin-7-yl)isoquinolin-3-yl)carbamate] | – | – |
| 2.5 nM | Cc1c(-c2cc3cc(NC(=O)NC4CCOC4)ncc3cc2F)cnc2c1NCCO2 (single isomer, unassigned) [Compound 206b] | – | – |
| 2.1 nM | Cc1c(-c2cc3cc(NC(=O)OCC4CCNC4)ncc3cc2F)cnc2c1NCCO2 (racemic) [Compound 107, Pyrrolidin-3-ylmethyl (7-fluoro-6-(8-methyl-2,3-dihydro-1H-pyrido[2,3-b][1,4]oxazin-7-yl)isoquinolin-3-yl)carbamate] | – | – |
| 10 nM | Cc1c(-c2cc3cc(NC(=O)NC(C)c4cnn(C)c4)ncc3cc2F)cnc2c1NCCO2 (single isomer, unassigned) [Compound 201b] | – | – |

| Compound | Ki [2] | % IL-2 increase relative to untreated cells ([1]; assayed concentration 0.926 μM) | % IL-2 increase relative to untreated cells ([1]; assayed concentration 2.778 μM) |
| --- | --- | --- | --- |
| CC[C@@H]1[C@H](C(=O)Nc2cc3cc(-c4c[n+]([O-])ccc4C)c(F)cc3cn2)[C@H]1c1cnn(C)c1 [Compound 302a, 3-(3-((1S,2S,3S)-2-Ethyl-3-(1-methyl-1H-pyrazol-4-yl)cyclopropane-1-carboxamido)-7-fluoroisoquinolin-6-yl)-4-methylpyridine 1-oxide] | 1280 nM | – | – |

Reference: patent US12473301B2, “Isoquinoline compounds for the treatment of cancer” (Genentech, Inc., priority 2018, dated 2025)
